Reference: patent US9061997B2, “Quinolinone derivatives” (Centre National de la Recherche Scientifique, priority 2010, dated 2015)
Where two headings read alike, the source gives them in different places.

Legend:
C3H10T1/2 cells [1] = assay: Enzymatic assay of alkaline phosphatase in 96-well plates (differentiation of C3H10T1/2 cells); type: cell-based; settings: for EC50 / Emax: Mus musculus
Protocol: (§1) The effect of the compounds of general formula (I) in accordance with the invention on the stimulation of osteogenesis was determined in vitro by analyzing the differentiation of the C3H10T1/2 pluripotent mesenchymal cell line.
(§2) The test compounds of formula (I) were dissolved in dimethyl sulfoxide (DMSO) to a concentration of 2.5 mM, and then stored at a temperature of −20° C. until use.
(§3) The C3H10T1/2 pluripotent fibroblast cell line (ATCC CCL 226) was cultured under the conditions recommended by the ATCC in DMEM culture medium supplemented with 10% of fetal calf serum at a temperature of 37° C. under an atmosphere at 5% CO2. 24 hours after seeding, the cells were stimulated for 6 days in the presence of the compounds of general formula (I) directly diluted in the culture medium. The activation by these compounds causes differentiation of the cell line to the osteoblast lineage and enables the latter to express alkaline phosphatase. Said alkaline phosphatase is then detected by histochemistry or enzymatic assay.
The C3H10T1/2 cells were seeded onto 96-well plates at a density of 5×10^3 cells per well. The compounds were applied at increasing concentrations ranging from 10 nM to 10 μM. The plates were then incubated for 6 days and the assays were then carried out in quadruplicate according to the methods previously described (Chen et al. 2002; Frank-Kamenetsky et al. 2002).
The cells were washed in cold phosphate buffer (PBS) and then lysed by sonication at 4° C. in 50 μl of solution containing 0.9% of NaCl and 0.2% of Triton X-100. The alkaline phosphatase activity in the resulting lysates was then measured according to the method described by Pepinsky et al. (Pepinsky et al. 1998). After the addition of 100 μl of reaction buffer (200 mM Tris-HCl; pH 10.5; 0.4 M of 2-amino-2-methylpropanol and 8 mM of MgCl2) and of 50 μl of substrate (4 mM of disodium p-nitrophenyl phosphate), the lysates were incubated at 37° C. for 60 min, and then the optical density (OD) was measured at a wavelength of 415 nm. By way of comparison, the activity of the SAG compound, which activates osteogenesis by acting on the Hedgehog pathway, was tested under the same conditions. The GraphPad Prism 4° software was used to plot the curves and to determine the effective concentrations 50 (EC50).

C3H10T1/2 cells [2] = assay: Detection of alkaline phosphatase by histochemistry (differentiation of C3H10T1/2 cells); type: cell-based; settings: 10 μM, 6 days; intensities compound 4>compound 1>compound 8>compound 6; no DMSO-treated cell labeled
Protocol: as §1, §2, §3
For this experiment, the cells are cultured in 6-well plates containing a glass cover slip treated for 1H with 0.05 mg/ml poly-D-lysine. The C3H10T1/2 cells are seeded at a density of 150 000 cells per well. The compounds were applied at a concentration of 10 μM. the Sigma staining kit (85L-3R) was used according to the protocol described. Briefly, after fixing the cells for 30 seconds with a solution of citrate/acetone (2-3) and then rinsing with double-distilled water, the staining is carried out for 30 min in the presence of a solution of Fast-Violet/Naphthol in the dark. The cover slips are then rinsed thoroughly with double-distilled water and then mounted in aqueous medium before being photographed on a DMRXA2 microscope (Leica Microsystems). The cells expressing alkaline phosphatase are stained red.

[3] = C3H 10T1/2, 144 h, 6 days of stimulation, 10 nM to 10 μM, OD 415 nm, mean of 2 to 5 independent experiments, read-out: EC50 on the differentiation of C3H10T1/2 cells measured via alkaline phosphatase activity
[4] = C3H 10T1/2, 144 h, 6 days of stimulation, relative to compound 1 in the same experiment, mean of 2 to 5 independent experiments, read-out: Maximum stimulation, % of maximum activation of compound 1
[5] = dose-response curve produced in parallel with compound 1

Compound | EC50 (C3H10T1/2 cells [1]; [3]) [nM] | Emax (C3H10T1/2 cells [1]; [4]) [%] | Expression of alkaline phosphatase detected by histochemical staining (number of cells labeled) (C3H10T1/2 cells [2]) | Affinity compared with compound 1 (FIG. 3) (C3H10T1/2 cells [1]; [5]) | Maximum stimulation compared with compound 1 (FIG. 3) (C3H10T1/2 cells [1]; [5]) | EC50 (C3H10T1/2 cells [1]; C3H 10T1/2, 144 h, 6 days of stimulation, alkaline phosphatase activity, read-out: Affinity (activation of C3H10T1/2 cell differentiation)) [nM] | Emax (C3H10T1/2 cells [1]; C3H 10T1/2, excess over compound 1, read-out: Maximum stimulation greater than that of compound 1) [%]
CCCCCCn1c(=O)c(C(=O)Nc2ccc(C(=O)OCCCC)cc2)c(O)c2ccccc21 [Compound 5, butyl 4-(1-hexyl-4-hydroxy-2-oxo-1,2-dihydroquinoline-3-carboxamido)benzoate] | 1500 | 91 | – | – | – | – | –
CCCCCCn1c(=O)c(C(=O)Nc2ccc(C(=O)OC(C)C)cc2)c(O)c2ccccc21 [Compound 9, isopropyl 4-(1-hexyl-4-hydroxy-2-oxo-1,2-dihydroquinoline-3-carboxamido)benzoate] | 6500 | 33 | – | – | – | – | –
CCCCCCn1c(=O)c(C(=O)Nc2ccc(C(=O)NCCCC)cc2)c(O)c2ccccc21 [Compound 8, N-(4-(butylcarbamoyl)phenyl)-1-hexyl-4-hydroxy-2-oxo-1,2-dihydroquinoline-3-carboxamide] | 5800 | 94 | increase in the number of cells labeled | – | – | – | –
CCCCCCn1c(=O)c(C(=O)Nc2ccc(C(=O)OCC)cc2)c(O)c2ccccc21 [Compound 3, ethyl 4-(1-hexyl-4-hydroxy-2-oxo-1,2-dihydroquinoline-3-carboxamido)benzoate] | 3600 | 66 | – | – | – | – | –
CCCCCCn1c(=O)c(C(=O)Nc2ccc(C(=O)OCCC)cc2)c(O)c2ccccc21 [Compound 1, propyl 4-(1-hexyl-4-hydroxy-2-oxo-1,2-dihydroquinoline-3-carboxamido)benzoate] | 1300 | 100 | increase in the number of cells labeled | – | – | – | –
CCOC(=O)c1ccc(NC(=O)c2c(O)c3ccccc3n(Cc3ccccc3)c2=O)cc1 [Compound 2, ethyl 4-(1-benzyl-4-hydroxy-2-oxo-1,2-dihydroquinoline-3-carboxamido)benzoate] | > 3000 | 4 | – | – | – | – | –
CNC1CCC(N(Cc2cccc(-c3ccncc3)c2)C(=O)c2sc3ccccc3c2Cl)CC1 (centres unmarked) [SAG, reference compound] | – | – | – | similar | lower maximum stimulation than compound 1 | – | –
CCCCCCn1c(=O)c(C(=O)Nc2ccc(C(=O)O)cc2)c(O)c2ccccc21 [Compound 4, 4-(1-hexyl-4-hydroxy-2-oxo-1,2-dihydroquinoline-3-carboxamido)benzoic acid] | 600 | 124 | increase in the number of cells labeled | – | – | 600 | 20
CCCCCCn1c(=O)c(C(=O)Nc2ccc(C(=O)OC(C)(C)C)cc2)c(O)c2ccccc21 [Compound 6, tert-butyl 4-(1-hexyl-4-hydroxy-2-oxo-1,2-dihydroquinoline-3-carboxamido)benzoate] | 3100 | 62 | increase in the number of cells labeled | – | – | – | –
CCCCCCn1c(=O)c(C(=O)Nc2ccc(C(=O)OCc3ccccc3)cc2)c(O)c2ccccc21 [Compound 7, benzyl 4-(1-hexyl-4-hydroxy-2-oxo-1,2-dihydroquinoline-3-carboxamido)benzoate] | 2000 | 47 | – | – | – | – | –
